Measured values reported in patent US20250312333A1, “COMPOSITION CONTAINING ARIPIPRAZOLE AS ACTIVE INGREDIENT FOR ENHANCING ANTICANCER EFFECT OF KRAS G12C GENETIC MUTATION THERAPEUTIC AGENT” (KOREA INSTITUTE OF RADIOLOGICAL & MEDICAL SCIENCES, priority 2022, published 2025).

What was measured:
Type in all cases: cell-based
NOXA protein [1] = assay: NOXA protein expression by Western blot in NCI-H1373 cells; conditions: aripiprazole treatment, eight hours, Western blot (FIG. 1)
Experimental: (§1) To identify an effect of aripiprazole on the expression of a NOXA protein in cancer cells, MIA PaCa-2 cells and NCI-H1373 cells were treated with aripiprazole. Eight hours later, proteins were extracted from cells after washing with PBS, and a level of NOXA expression was checked via Western blot.

MIA PaCa-2 cells = assay: PARP cleavage (apoptosis) by Western blot in MIA PaCa-2 cells; conditions: co-treatment with the therapeutic agent for KRAS G12C genetic mutation vs either agent alone, twenty four hours (FIG. 3)
Experimental: (§2) To identify the effect of aripiprazole on apoptosis induced by the therapeutic agent for KRAS G12C genetic mutation in cancer cells, MIA PaCa-2 cells were treated with aripiprazole alone or in combination with the therapeutic agent for KRAS G12C genetic mutation. Twenty four hours later, proteins were extracted from cells after washing with PBS, and the degree of PARP cleavage was checked via Western blot.

NOXA protein [2] = assay: NOXA protein expression by Western blot in MIA PaCa-2 cells; conditions: aripiprazole treatment, eight hours, Western blot (FIG. 1)
Experimental: as §1

NCI-H1373 cells = assay: PARP cleavage (apoptosis) by Western blot in NCI-H1373 cells; conditions: co-treatment with the therapeutic agent for KRAS G12C genetic mutation vs either agent alone, twenty four hours (FIG. 4)
Experimental: as §2, with “NCI-H1373” for “MIA PaCa-2”

**Q.** For `O=C1CCc2ccc(OCCCCN3CCN(c4cccc(Cl)c4Cl)CC3)cc2N1` [aripiprazole], which “expression of NOXA protein” value (NOXA protein [1]) is on record?
**A.** increased

**Q.** What about the “degree of PARP cleavage” value (MIA PaCa-2 cells) of the same molecule?
**A.** superior effect of inducing PARP cleavage

**Q.** What about the “expression of NOXA protein” value (NOXA protein [2]) of the same molecule?
**A.** increased

**Q.** What about the “degree of PARP cleavage” value (NCI-H1373 cells) of the same molecule?
**A.** superior effect of inducing PARP cleavage
